For test [1], the target named is T1, muscarinic receptor subtype 1 (M1) (Homo sapiens, UniProt P11229).
T1 sequence (P11229 1-460): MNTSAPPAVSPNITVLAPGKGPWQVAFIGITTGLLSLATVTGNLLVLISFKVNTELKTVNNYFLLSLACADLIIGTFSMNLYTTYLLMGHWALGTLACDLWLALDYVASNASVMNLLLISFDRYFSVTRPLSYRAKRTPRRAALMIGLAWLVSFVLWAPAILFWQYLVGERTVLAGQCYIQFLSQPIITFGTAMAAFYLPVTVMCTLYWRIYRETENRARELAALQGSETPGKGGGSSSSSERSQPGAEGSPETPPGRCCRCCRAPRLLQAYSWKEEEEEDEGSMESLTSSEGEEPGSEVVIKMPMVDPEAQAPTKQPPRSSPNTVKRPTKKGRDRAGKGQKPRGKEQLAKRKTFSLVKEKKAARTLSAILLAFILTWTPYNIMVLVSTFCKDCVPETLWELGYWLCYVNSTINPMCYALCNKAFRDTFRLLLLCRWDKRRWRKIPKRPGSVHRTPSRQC
The test is described as follows: GPCR membrane microarray, labeled-ligand cocktail binding with or without telenzepine, M1 microspots. The note with it: 1 μM telenzepin; cocktail with 2 nM Cy3-B-telenzepine; FIG. 1B. From the text: (§1) FIG. 1A and FIG. 1B are false-color fluorescence images of two membrane microarrays made using six different GPCR-membrane preparations (from left to right, they are HEK cell membrane as control, muscarinic receptor subtype 1 (M1), motilin receptor (MOTR), neurotensin receptor subtype 1 (NTR1), opioid receptor like subtype 1 (ORL1) and delta 2 opioid receptor (OP1)).
(§2) FIGS. 1A & 1B are false-color fluorescence image of a membrane microarray made using six different GPCR-membrane preparations. The images, in Cy5 to Cy3 ratio, are taken after the array is assayed with a binding buffered solution containing a mixture or cocktail solution of labeled ligands. […] FIGS. 1A and 1B are, respectively, in the absence and presence of 1 μM telenzepin. Before array fabrication, all receptor membranes obtained from commercial vendors are re-formulated using a standardized ink containing: ˜20 mM Tris-HCl, pH 7.4, ˜10 mM MgCl2, ˜10% sucrose, 5% glycerol, 0.5% BSA, total membrane proteins in the range of 1 to 3 mg/ml.

Test [2] has as its system MOTR, NTR1, ORL1, OP1 receptor microspots. The test is described as follows: GPCR membrane microarray, labeled-ligand cocktail binding with or without telenzepine, other receptor microspots. The note with it: 1 μM telenzepin, FIG. 1B.
Text: as §1, §2

Take `Cc1scc2c1N(C(=O)CN1CCN(C)CC1)c1ccccc1NC2=O` [telenzepine]: in test [1], the “inhibition of labeled ligand binding to M1 microspots” value is given as “specifically inhibits the binding of labeled ligand to M1 microspots”. Besides, the “inhibition of labeled ligand binding to other receptor microspots” value in test [2] is “not any other receptor microspots”.
